Experimental data from US6528528B2 (Warner-Lambert Company, priority 1997, dated 2003).

How the values were obtained:
[1] = target: T1, rabbit reticulocyte 15-LO (Oryctolagus cuniculus, UniProt P12530); experiment: Rabbit Reticulocyte 15-LO Assay (h15LO); format: biochemical; conditions: for IC50: 2U rabbit reticulocyte 15-LO, 174 μM linoleic acid, 15 minutes at 4° C.; for inhibition at 10 µM: read-out: h15LO % Inhibition at 10 μM
T1 construct: Fifteen-lipoxygenase was obtained from phenylhydrazine-treated rabbits and purified per the method of Rapoport; from tissue; host or cells: reticulocytes of phenylhydrazine-treated rabbits
T1 sequence (P12530 1-663): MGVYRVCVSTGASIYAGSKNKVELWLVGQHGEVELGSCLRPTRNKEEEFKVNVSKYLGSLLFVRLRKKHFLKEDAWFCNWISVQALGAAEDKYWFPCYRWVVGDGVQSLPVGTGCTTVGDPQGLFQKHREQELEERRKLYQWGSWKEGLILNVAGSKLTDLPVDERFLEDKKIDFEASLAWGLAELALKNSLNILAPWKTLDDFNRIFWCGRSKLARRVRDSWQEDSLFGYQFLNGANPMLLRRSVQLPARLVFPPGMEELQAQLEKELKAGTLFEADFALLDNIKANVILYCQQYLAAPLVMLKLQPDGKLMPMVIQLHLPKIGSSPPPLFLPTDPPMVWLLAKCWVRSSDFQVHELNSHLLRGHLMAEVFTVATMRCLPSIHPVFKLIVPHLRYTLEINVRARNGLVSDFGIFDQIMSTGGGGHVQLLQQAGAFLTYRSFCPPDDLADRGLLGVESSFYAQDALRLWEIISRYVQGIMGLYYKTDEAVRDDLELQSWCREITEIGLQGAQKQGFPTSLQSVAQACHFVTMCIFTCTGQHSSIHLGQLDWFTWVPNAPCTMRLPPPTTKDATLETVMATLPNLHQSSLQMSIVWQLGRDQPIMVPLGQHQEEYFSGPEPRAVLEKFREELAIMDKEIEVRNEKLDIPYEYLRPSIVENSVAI
In short: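 Purified rabbit reticulocyte 15-LO (2U) incubated with inhibitor and 174 μM linoleic acid in PBS with 0.2% Na cholate for 15 minutes at 4° C. 13-HPODE quantified by peak area against 13-HODE standard curve; % inhibition relative to uninhibited reaction.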

SMILES | IC50 ([1]; Table 2) [nM] | melting point [°C] | inhibition at 10 µM ([1]; Table 1) [%] | IC50 ([1]; Table 1) [nM]
COc1ccc(C(=O)Nc2ccccc2)cc1NC(=S)Nc1ccccc1 [Example 62, 4-Methoxy-N-phenyl-3-(3-phenyl-thioureido)-benzamide] | 70 | 174 to 176 | – | –
COc1ccc(C(=O)Nc2ccc(Cl)c(Cl)c2)cc1NC(=S)Nc1ccc(S(N)(=O)=O)cc1 [Example 105, N-(3,4-Dichlorophenyl)-4-methoxy-3-[3-(4-sulfamoyl-phenyl)-thioureido]-benzamide] | 14 | 190 to 193 | – | –
O=C(Nc1ccccc1)c1cccc(NC(=S)Nc2cc(Cl)cc(Cl)c2)c1 [Example 70, 3-[3-(3,5-Dichlorophenyl)-thioureido]-N-phenyl-benzamide] | 500 | 174 to 177 | – | –
COc1ccc(C(=O)Nc2ccccc2)cc1NC(=S)Nc1cccc(C(F)(F)F)c1 [Example 84, 4-Methoxy-N-phenyl-3-[3-(3-trifluoromethyl-phenyl)-thioureido]-benzamide] | 20 | 177 to 178 | – | –
CSc1ccc(C(=O)Nc2ccccc2)cc1Nc1cccc(C(F)(F)F)c1 [Example 43, 4-Methylsulfanyl-3-(3-trifluoromethyl-phenylamino)-N-phenyl-benzamide] | 73 | 169 to 170 | – | –
COc1ccc(C(=O)Nc2ccc(C)c(C)c2)cc1N [Example 6, 3-Amino-4-methoxy-N-(3,4-dimethylphenyl)-benzamide] | – | 138 to 142 | 79 | –
COc1ccc(C(=O)Nc2ccc(Cl)cc2)cc1N [Example 2, 3-Amino-4-methoxy-N-(4-chlorophenyl)-benzamide] | – | 191 to 192 | – | 290
CCS(=O)(=O)Nc1cc(C(=O)Nc2ccccc2)ccc1OC [Example 134, 3-Ethanesulfonylamino-4-methoxy-N-phenyl-benzamide] | 137 | 175 to 177 | – | –
COc1ccc(C(=O)Nc2ccccc2)cc1Nc1ccc(C)cc1 [Example 34, 3-(4-Methyl-phenylamino)-4-methoxy-N-phenyl-benzamide] | 29 | 187 to 188 | – | –

The remaining lines, values ahead:

IC50 ([1]; Table 2) [nM] | melting point [°C] | inhibition at 10 µM ([1]; Table 1) [%] | IC50 ([1]; Table 1) [nM] | SMILES
19 | 178 to 179 | – | – | COc1ccc(C(=O)Nc2ccccc2)cc1NC(=S)Nc1cccnc1 [Example 81, 4-Methoxy-N-phenyl-3-(3-pyridin-3-yl-thioureido)-benzamide]
26 | 191 to 192 | – | – | COc1ccc(C(=O)Nc2cccnc2)cc1NC(=S)Nc1cccc(C(=O)O)c1 [Example 112, 3-{3-[2-Methoxy-5-(pyridin-3-ylcarbamoyl)-phenyl]-thioureido}-benzoic acid]
40 | 190 to 194 | – | – | COc1ccc(C(=O)Nc2ccccc2)cc1NS(=O)(=O)c1ccccc1 [Example 120, 3-Benzenesulfonylamino-4-methoxy-N-phenyl-benzamide]
– | 167 to 170 | 38 | – | Nc1cc(C(=O)Nc2ccccc2)ccc1F [Example 9, 3-Amino-4-fluoro-N-phenyl-benzamide]
33 | 183 to 184 | – | – | COc1ccc(C(=O)Nc2ccccc2)cc1NC(=S)Nc1ccc([N+](=O)[O-])cc1 [Example 88, 4-Methoxy-3-[3-(4-nitrophenyl)-thioureido]-N-phenyl-benzamide]
41 | 198 to 200 | – | – | COc1ccc(C(=O)Nc2ccccc2)cc1NC(=S)Nc1ccc(C(C)(C)C)cc1 [Example 64, 3-[3-(4-tert-Butyl-phenyl)-thioureido]-4-methoxy-N-phenyl-benzamide]
20 | 174 to 175 | – | – | COc1ccc(C(=O)Nc2ccccc2)cc1NC(=S)Nc1ccc(Cl)c(Cl)c1 [Example 85, 3-[3-(3,4-Dichlorophenyl)-thioureido]-4-methoxy-N-phenyl-benzamide]
